The values that follow come from patent US20110171261A1, “IMMUNOGENIC COMPOSITION” (priority 2008, published 2011).

The target in series [1] is T1, CXCR4 (Homo sapiens, UniProt P61073).
T1 construct: Expression of chemokine receptors CCR4 and CXCR4 by CCRF-CEM cells; endogenous in cells; host or cells: CCRF-CEM
The series can be described thus: CXCL12-mediated (CXCR4) chemotaxis of CCRF-CEM cells, specificity. It is filed as cell-based. The conditions noted are these: 3 nM CXCL12; 2 μM CCR4 antagonists (1000 times higher than IC50); n=2. The procedure:
FIG. 2: Assessment of the specificity of CCR4 antagonists. (A) Expression of chemokine receptors CCR4 and CXCR4 by CCRF-CEM cells.
Cell migration was measured by chemotaxis through a 5 μm pore polycarbonate filter in 24-well transwell chambers (Costar, Cambridge, Mass.). Chemokines (R&D systems) were placed in lower chambers in 600 μl RPMI/1% FCS medium and cells were placed in upper chambers in 100 μl medium. After 2 h incubation at 37° C., cells in the lower chamber were recovered and counted with a FACSCalibur (Becton Dickinson, Mountain View, Calif.). Preliminary chemokine titration experiments established optimal doses for chemotaxis: (1) for CCRF-CEM cells, 6 nM CCL22 and 3 nM CCL17 or CXCL12; (2) for Tregs and Th2 cells, 1.2 nM CCL22 or CCL17. To assess CCR4 antagonism, candidate antagonist compounds (10 nM) were mixed directly with chemokines as indicated. Percent inhibition of chemotaxis by CCR4 antagonists was calculated in relation to controls treated with solvent (DMSO) alone as follows: ([no. cells migrated in the presence of DMSO—no. cells migrated in the presence of antagonist]/no. cells migrated in the presence of DMSO)×100. To measure IC50 values, graded doses of antagonists were added to a constant concentration of CCL22.
CCRF-CEM also expresses another chemokine receptor, CXCR4 (FIG. 2A), which allowed the specificity of the CCR4 antagonists to be tested. With the exception of one antagonist, the compounds had no effect on either CXCR4-mediated migration (FIG. 2B) or cell viability (data not shown), even at concentrations 1000 times higher than their IC50 values (˜2 μM)

The subject of series [2] is CD4+CD25+ regulatory T cells. The experiment in a line: Cell viability of Tregs. It is filed as cell-based, human.
The target of series [3] is T2, CCR4 (Mus musculus, UniProt P51680).
T2 construct: endogenous in cells
T2 sequence (P51680 1-360): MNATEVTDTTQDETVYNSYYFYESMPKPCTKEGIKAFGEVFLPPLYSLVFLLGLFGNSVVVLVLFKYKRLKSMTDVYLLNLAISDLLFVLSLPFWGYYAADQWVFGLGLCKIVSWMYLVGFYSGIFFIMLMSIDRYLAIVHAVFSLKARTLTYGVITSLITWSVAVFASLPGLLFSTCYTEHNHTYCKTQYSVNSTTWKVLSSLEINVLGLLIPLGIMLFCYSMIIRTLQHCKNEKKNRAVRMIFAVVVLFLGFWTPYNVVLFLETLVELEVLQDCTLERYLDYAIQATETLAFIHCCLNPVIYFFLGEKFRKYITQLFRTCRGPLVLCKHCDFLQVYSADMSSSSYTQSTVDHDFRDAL
The series can be described thus: CCR4-mediated migration of mouse cells in vitro. It is filed as cell-based. The conditions noted are these: data not shown.

Series [4] relates to PPD-reactive IFN-γ-secreting cells. The series can be described thus: T cell response (IFN-γ ELISPOT and CBA) in mice after MVA85A vaccination. It is filed as in vivo, BALB/c mice. The conditions noted are these: i.m., MVA85A plus ~2.5 μM antagonist, 6 days post vaccination, splenocytes, 20 μg/ml PPD; for frequency of PPD-reactive IFN-γ-secreting cells (ELISPOT): vs DMSO; for production of IFN-γ in PPD-stimulated cultures (supernatant, CBA): 18 h.

Series [5] relates to HBsAg specific antibodies. The series can be described thus: Anti-HBsAg IgG ELISA after rHBsAg vaccination of mice. The class given is in vivo, BALB/c mice. The following applies: 14 days after second vaccination. A general note: ELISA stands for enzyme-linked immunosorbent assay.
In series [6] the test system is antibody response to the HBsAg. The series can be described thus: ELISA of sera of mice immunised with HBsAg in SP50 adjuvant at different concentrations (Example 6). The class given is in vivo, Balb/c mice. The following applies: s.c., 0.5 micrograms HBsAg with SP50 at 1 millimolar, 100 micromolar or 10 micromolar, boost day 14, bled 14 days later, all concentrations. The text has this:
FIG. 7: CCR4 antagonist SP50 (Compound VIII—AF-399/42016530—4-(1-benzofuran-2-ylcarbonyl)-1-[5-(benzylsulfanyl)-1,3,4-thiadiazol-2-yl]-3-hydroxy-5-(2-thienyl)-1,5-dihydro-2H-pyrrol-2-one. MW: 531.64. Formula: C26H17N3O4S3) enhances the immunogenicity of a vaccine in vivo. The graph in FIG. 7 depicts the results of an ELISA assay of sera of mice immunised with HBsAg in different concentrations of SP50 adjuvant or of HBsAg in DMSO (negative control) or of HBsAG in the commercially used vaccine composition Engerix™. […] Each line represents the mean of a group of 4 mice.
6 week old female Balb/c mice were used, and immunised with a recombinant Hepatitis B surface antigen (HBsAg) from Biospacific, 598 Horton St no 225, Emeryville Calif. 94608, Catalogue number J44050228 lot number 4475.
Groups of 4 mice were given 0.5 micrograms of HBsAg subcutaneously in 25 microlitres of saline with an equal volume of SP50 at concentrations of 1 millimolar, 100 micromolar or 10 micromolar. Controls received 0.5 micrograms of HBsAg plus 25 microlitres of DMSO (the vehicle used to dissolve the SP50). A second control group received a dose of the alum-adjuvanted commercial Hepatitis B vaccine “Engerix” containing 0.5 micrograms of HBsAg. 14 days later the mice were boosted in an identical fashion and they were bled out a further 14 days later. […]

Molecules are shown by their SMILES.

T1 sequence (P61073 whole entry): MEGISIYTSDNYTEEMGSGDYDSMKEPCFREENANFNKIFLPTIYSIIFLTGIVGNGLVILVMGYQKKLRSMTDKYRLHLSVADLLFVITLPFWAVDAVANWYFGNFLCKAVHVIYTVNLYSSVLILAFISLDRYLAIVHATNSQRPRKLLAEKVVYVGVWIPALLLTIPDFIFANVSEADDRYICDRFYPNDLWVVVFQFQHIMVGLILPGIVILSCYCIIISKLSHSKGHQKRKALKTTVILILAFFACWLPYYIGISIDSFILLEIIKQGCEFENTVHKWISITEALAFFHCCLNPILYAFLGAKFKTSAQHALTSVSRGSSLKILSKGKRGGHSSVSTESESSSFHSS

On to `O=C(C1=C(O)C(=O)N(c2nnc(SCc3ccc(Cl)cc3)s2)C1c1cccs1)c1cc2ccccc2o1` (stereo not shown) [(V)], for which the “effect on CXCL12-mediated chemotaxis (CXCR4-mediated migration) of CCRF-CEM cells” value (“effect on CXCL12-mediated chemotaxis” below) in series [1] is “do not inhibit”. For the same compound, the “effect on cell viability” value in series [2] was “None of the compounds affected cell viability”. Moreover, in series [3], the “inhibition of CCR4-mediated migration of mouse cells in vitro” value is reported as “inhibit”. Also, in series [4], the “frequency of PPD-reactive IFN-γ-secreting cells (ELISPOT)” value is recorded as “significantly enhanced” and the “production of IFN-γ in PPD-stimulated cultures (supernatant, CBA)” value is given as “significantly greater production”.

For `O=C(C1=C(O)C(=O)N(c2nnc(SCc3ccccc3)s2)C1c1cccs1)c1cc2ccccc2o1` (stereo not shown) [compound (VIII), 4-(1-benzofuran-2-ylcarbonyl)-1-[5-(benzylsulfanyl)-1,3,4-thiadiazol-2-yl]-3-hydroxy-5-(2-thienyl)-1,5-dihydro-2H-pyrrol-2-one], the “effect on CXCL12-mediated chemotaxis” value in series [1] is given as “do not inhibit”. For the same compound, in series [2], the “effect on cell viability” value was “None of the compounds affected cell viability”. Moreover, the “inhibition of CCR4-mediated migration of mouse cells in vitro” value in series [3] is “inhibit”. In series [4], the “frequency of PPD-reactive IFN-γ-secreting cells (ELISPOT)” value is on record as “significantly enhanced” and the “production of IFN-γ in PPD-stimulated cultures (supernatant, CBA)” value is listed as “significantly greater production”. Moreover, the “IgG subclass of anti-HBsAg IgG response” value in series [5] is reported as “predominantly of the IgG1 subtype”. Besides, in series [5] (s.c., rHBsAg plus compound (~2.5 μM), vs DMSO), the “titer of HBsAg specific antibodies (IgG, ELISA)” value is recorded as “significantly enhanced the titer of HBsAg specific antibodies to a level similar to that of Engerix-B”. The “antibody response to the HBsAg (ELISA of sera)” value in series [6] is recorded as “greater than that to Engerix™”.

As for `O=C(C1=C(O)C(=O)N(c2nnc(SCc3ccccc3Cl)s2)C1c1ccc(Cl)c(Cl)c1)c1cc2ccccc2o1` (stereo not shown) [(III)], the “effect on CXCL12-mediated chemotaxis” value in series [1] was “do not inhibit”. The “effect on cell viability” value in series [2] is recorded as “None of the compounds affected cell viability”.

Turning to `CCc1ccc(C2C(C(=O)c3cc4ccccc4o3)=C(O)C(=O)N2c2nnc(SCc3ccccc3F)s2)cc1` (stereo not shown) [(VI)], the “effect on CXCL12-mediated chemotaxis” value in series [1] is recorded as “do not inhibit”. Also, the “effect on cell viability” value in series [2] is reported as “None of the compounds affected cell viability”.

For the compound `O=C(CSc1nc(-c2ccccc2)c(-c2ccccc2)o1)Nc1ccc(S(=O)(=O)Nc2nccs2)cc1` [(XI)], the “effect on CXCL12-mediated chemotaxis” value in series [1] is given as “do not inhibit”. Moreover, in series [2], the “effect on cell viability” value is recorded as “None of the compounds affected cell viability”.
